Data as given in a melting point compilation (Tetko et al.; mined from patent text by program, amines drawn as free bases though some values may be those of a salt).

| SMILES | melting point [°C] |
| --- | --- |
| CCCCCCOc1ccc2c(c1)c(CC(=O)O)c(C)n2Cc1ccc(Cl)cc1 | 148 to 150 |
| COc1ccc(Cl)cc1C(=O)NCCc1ccc(CCC(=O)O)cc1 | 118 to 120 |
| OCCCc1ccc(O)cc1 | 52 to 54 |
| CS(=O)(=O)c1c(C(=O)O)ccc(F)c1F | 194 |
| CN1C(=O)[C@H](NC(=O)Nc2ccc(Cl)cc2Cl)N=C(c2ccccc2)c2ccccc21 | 215 to 216 |
| Cn1nc2c(N)nc3ccccc3c2c1CCc1ccccc1 | 210 to 212 |
| c1cc(-c2c(-c3ccsc3)nc3ccc(N4CC5CNCC5C4)nn23)ccn1 (stereo not given) | 196 to 198 |
| CC(CO)c1ccc(O)c(Cc2ccccc2O)c1 (stereo not given) | 86 to 89 |
| CCOC(=O)CC(=O)C=Cc1ccccc1 | 49 |
| CC(=O)NC[C@H]1CN(c2ccc(C3=CN(C(=O)COC(C)=O)CCC3)c(F)c2)C(=O)O1 | 146 to 148 |
| CCCCCCCCCC=CC(=O)C1C(=O)C=C(C)OC1=O (stereo not given) | 112 to 113 |
| C[C@@H](NC(=O)c1c[nH]c2ncc(-c3nn(C)c4cc(Cl)ccc34)nc12)C(=O)N1CC(F)C1 | 257 to 260 |
| CC(C(=O)c1ccc(F)cc1)N1CCC(O)(Cc2ccccc2)CC1 (stereo not given) | 120 |
| O=C(O)CCCCc1ccc(CCNS(=O)(=O)c2ccc(Cl)cc2)cc1 | 118 to 120 |
| C#Cc1ccc(=O)n(C(C)C)n1 | 103 to 104 |
| CCN(CC)Cc1cc(Nc2ccnc3cc(Cl)ccc23)c2ccccc2c1O | 158 to 160 |
| N#CCCNC(=O)c1ccnc(-c2cccc3oc(Cc4cccc(C(F)(F)F)c4)cc23)c1 | 114 to 115 |
| COC(=O)c1nc2ccc(Cl)cc2n1Cc1ccccc1 | 184 to 186 |
| CCOC(=O)CN1CCc2c(sc(N)c2C(=O)c2ccccc2)C1 | 115 to 117 |
| O=C/C(=C/c1ccc(Cl)cc1Cl)c1ccc(Cl)cc1 | 106 to 109 |

Next, values leading:

| melting point [°C] | SMILES |
| --- | --- |
| 130 to 134 | Cc1cc(Cl)ccc1OCC(=O)N1Cc2ccc(C(=O)CCc3ccccc3)n2Cc2ccccc21 |
| 250 to 255 | Cn1c(=O)c(-c2ccccc2)cc2cnc(N)nc21 |
| > 250 | Nc1nc2ccc(S(=O)(=O)n3c(CCC(=O)O)cc4cc(C(F)(F)F)ccc43)cc2s1 |
| 86 to 87 | CC(C)N(C)c1ncc(C2CC2(C)C(N)=O)cc1Cl (stereo not given) |
| 204 to 206 | CC(C)CC(NC(=O)c1cc(O)c2c(c1)C(=O)c1cccc(O)c1C2=O)C(=O)O (stereo not given) |
| 83 to 85 | Clc1cccc(Oc2nccnc2Cl)c1 |
| 64 to 65 | COC(=O)c1cc(OCc2ccc3ccccc3n2)nn1C(C)C |
| 230 to 232 | CC(C)(C)N1CC(=O)Nc2ccc(I)cc2C1=O |
| 176 to 178 | C#CCNC1=NS(=O)(=O)N=C1NCCSCc1csc(NC(=N)N)n1 |
| 129 | Nc1cccc(NCCO)c1[N+](=O)[O-] |
| 190 to 195 | CCNC1(c2ccccc2Cl)C(=O)N(Cc2ccc(C(=O)NC(C)(C)C)cc2)c2ccc(Cl)cc21 (stereo not given) |
| 48 | COCCCNc1nc(Cl)cc(Cl)n1 |
| 178 to 179 | CC(=O)c1ccc2c(c1)C(C(=O)Nc1cccc(C(=O)Nc3ccccc3)c1)C(=O)N2C (stereo not given) |
| 214 to 215 | Clc1cccc(Nc2ncnc3[nH]nc(NCc4cccc5c4OCO5)c23)c1 |
| 130 to 140 | COc1ccc(C2C(=O)NC(C)(C(C)C)C2=O)c(Cl)c1 (stereo not given) |
| 76 to 77 | COC(=O)COc1cccc2c1CCC(Br)C2=O (stereo not given) |
| 255 to 260 | CC1(C)OC(=O)Nc2ccc(-c3cc(C#N)cs3)cc21 |
| 149 to 151 | CN1C2CCC1CC(NC(=O)c1cccc3oc(-c4ccccc4)nc13)C2 (stereo not given) |
| 106 to 108 | CN(C)C(=O)N1CC(Oc2ccc(C(F)(F)F)cc2Cl)C1 |
| 160 | O=C(/C=C/c1ccc2ccccc2n1)NO |
| 165 to 166 | CCOCc1nc2c(N)nc3cccnc3c2n1CC1(O)CCCC1 |
| 139 to 142 | N#Cc1ccc(Cn2cncn2)c(-c2ccc(OS(N)(=O)=O)c(Cl)c2)c1 |
| 66 to 67 | Cc1cccc(-c2nn(C)cc2-c2ccc(F)c(-c3ccc(S(C)(=O)=O)cc3)c2)n1 |
| 130 | COc1ccc(CN(C)CCCOc2ccc(NC(=O)c3cccc4c(=O)c5ccccc5[nH]c34)cc2)cc1OC |
| 175 to 190 | CNC(=O)CC(S)C(CC(C)C)C(=O)NC(Cc1ccc(OC)cc1)C(=O)NC (stereo not given) |
| 175 to 176 | O=C(Cc1ccc2[nH]cc(CCN3C(=O)c4ccccc4C3=O)c2c1)NC1CCCCC1 |
| 141 to 142 | O=[N+]([O-])c1c(C=NO)cccc1OCc1ccccc1 |
| 88 to 90 | COc1ccc(SC)c2c1CC(=O)CC2 |
| 80 to 82 | CCC(CC)Nc1c(N)cc(C)c(C)c1[N+](=O)[O-] |
| 164 to 167 | CCCCNS(=O)(=O)c1ccc(S(N)(=O)=O)cc1 |
